In US20230392173A1, “ENGINEERED BIOSYNTHETIC PATHWAY FOR PRODUCTION OF 4-AMINOPHENYLETHYLAMINE BY FERMENTATION” (Zymergen Inc., priority 2020, published 2023):

Legend:
Assay type in all cases: cell-based
Komagataella phaffi = test system: Komagataella phaffi
Description: (§1) FIG. 1: Toxicity impact of 4-APEA across a range of organisms tested in an Enzyscreen system. Various organisms are grown in media that is supplemented with the molecule of interest, and the growth of the organism is monitored over time. Analysis of the growth-time-course data allows determination of toxicity properties of the molecule of interest, such as the Minimal Inhibitory Concentration (MIC), the concentration at which growth is slowed to half (Ki), and the slope at which increased toxicity effects are observed (alpha). For FIG. 1, product toxicity was measured as a function of reduced substrate uptake with increasing product concentration.
(§2) The term “Ki,” as used herein, refers to the concentration of a chemical (e.g., 4-APEA) at which the maximal growth rate of cells in culture is slowed by half. Cultures of the cells are grown in media supplemented with varying concentrations of a chemical, and the cell growth is monitored over time. Exponential growth curve data at each chemical concentration are used to determine a specific growth rate p using the following equation:
(§3) where: X=cell concentration X0=cell concentration at time (t)=0 μ=specific growth rate. The maximal growth rate for each chemical concentration is determined (μobs) and the Ki is the chemical concentration at which the maximal growth rate has been slowed to half of the maximal growth rate in the absence of the chemical (μmax). Ki (denoted K1 below) can be determined from the equation:
(§4) where: CI=concentration of inhibitor KI=inhibition constant—inhibitor concentration where growth rate is half of maximum α=inhibition parameter to fit data μmax=the maximum growth rate of a culture in the absence of a chemical μobs=the maximum growth rate of a culture at a given concentration of a chemical
(§5) The term “alpha” (“α”), as used herein, refers to the slope at which toxicity effects are observed. Cultures of the cells are grown in media supplemented with increasing concentrations of a chemical, and the cell growth is monitored over time. Alpha can be determined from the equation: […]
(§6) One obstacle to efficient production of 4-aminophenylethylamine (4-APEA) by fermentation is that 4-APEA is toxic to many host microbes used conventionally for fermentation. FIG. 1 depicts the concentration of 4-APEA at which an organism's growth is slowed by half (Ki) and the slope (alpha) at which toxicity effects are observed over increasing 4-APEA concentrations. A larger Ki and smaller alpha indicate higher tolerance and less susceptibility to inhibition, respectively. […] K. phaffi is expected to perform similarly to K. pastoris as a production host.

Bacillus licheniformis = test system: Bacillus licheniformis
Description: as §1, §2, §3, §4, §5, §6

Saccharomyces cerevisiae = test system: Saccharomyces cerevisiae
Description: as §1, §2, §3, §4, §5, §6

Yarrowia lipolytica = test system: Yarrowia lipolytica
Description: as §1, §2, §3, §4, §5, §6

NCCc1ccc(N)cc1 [Strain 4-APEA, 4-aminophenylethylamine]
toxicity of 4-APEA (growth inhibition) (Komagataella phaffi): better results | toxicity of 4-APEA (growth inhibition) (Bacillus licheniformis): better results | toxicity of 4-APEA (growth inhibition) (Saccharomyces cerevisiae): substantial toxicity | toxicity of 4-APEA (growth inhibition) (Yarrowia lipolytica): better results
